This note sets out measurements from the NIST ThermoML archive (doi:10.1016/j.fluid.2007.11.002).

“And” between values parts separate entries of the source, which are not always exact repeats. Equal entries are not always repeated. ± gives the expanded uncertainty stated by the source.

Series [1] is described as follows: refractive index (Na D-line) (dimensionless). Conditions: 298.15 K; 101.33 kPa; Liquid; Standard Abbe refractometry.
For series [2] the following is noted: Liquid, Ebulliometric method (Recirculating still).

In general, refractive index refers to the speed of light in vacuum divided by its phase velocity in the sample. One may read the vapor or sublimation pressure as the pressure of vapour in equilibrium with the condensed phase. In the case of `CCC(C)O` (stereo not given) [butan-2-ol], in series [1], the refractive index stood at 1.3955 ± 0.0012. For the same molecule, the entries for the “vapor or sublimation pressure” value in series [2] (343.15 K) and in series [2] (363.15 K) were 29.86 ± 0.59 kPa and 70.25 ± 0.9 kPa, respectively. The Normal boiling temperature in series [2] turned out to be 99.50 ± 0.22 °C.
`C1COCCO1` [1,4-dioxane]: the refractive index in series [1] turned out to be 1.4205 ± 0.0012. In addition, the “vapor or sublimation pressure” value was 15.93 ± 0.36 kPa in series [2] (323.15 K); 23.94 ± 0.44 kPa and 24 ± 0.42 kPa in series [2] (333.15 K); 26.66 ± 0.44 kPa in series [2] (335.85 K); 35.19 ± 0.59 kPa and 35.11 ± 0.54 kPa and 35.2 ± 0.54 kPa in series [2] (343.15 K); 50.78 ± 0.8 kPa and 50.41 ± 0.68 kPa and 50.53 ± 0.68 kPa in series [2] (353.15 K); 53.33 ± 0.8 kPa in series [2] (354.65 K). Also, the results for the “vapor or sublimation pressure” value in series [2] (363.15 K), in series [2] (366.95 K) and in series [2] (374.45 K) were 70.91 ± 0.88 kPa, 79.99 ± 1 kPa and 101.33 ± 1.1 kPa, respectively. In series [2], the Normal boiling temperature was found to be 101.30 ± 0.22 °C.
Turning to `CC(C)(C)O` [2-methylpropan-2-ol], in series [1], the refractive index is given as 1.3823 ± 0.0012. Further, the “vapor or sublimation pressure” value in series [2] (323.15 K) was 24.4 ± 0.48 kPa; in series [2] (325.05 K), 26.66 kPa; in series [2] (333.15 K), 39.06 ± 0.62 kPa; in series [2] (340.05 K), 53.33 kPa; in series [2] (343.15 K), 60.93 ± 0.89 kPa; in series [2] (349.75 K), 79.99 kPa. For the same molecule, the “vapor or sublimation pressure” value is on record as 92.26 ± 1.2 kPa in series [2] (353.15 K) and 101.33 kPa in series [2] (355.55 K). Besides, the Normal boiling temperature in series [2] was 82.40 ± 0.22 °C.
`CC(C)CO` [2-methyl-1-propanol]: in series [1], the refractive index was determined as 1.3939 ± 0.0012. Moreover, the “vapor or sublimation pressure” value was 12.5 ± 0.34 kPa in series [2] (333.15 K); 20.35 ± 0.4 kPa in series [2] (343.15 K); 32.25 ± 0.55 kPa and 32.19 ± 0.5 kPa in series [2] (353.15 K). For the same molecule, the Normal boiling temperature in series [2] is 107.90 ± 0.22 °C.
